This passage reports IC50 and Km results from article PMC10485979, “CUDC-907, a dual PI3K/histone deacetylase inhibitor, increases meta-iodobenzylguanidine uptake (^123/131I-mIBG) in vitro and in vivo: a promising candidate for advancing theranostics in neuroendocrine tumors” (Journal of Translational Medicine, 2023).

Data set [1] concerns the target T1, norepinephrine transporter (NET) (Homo sapiens, UniProt P23975).
T1 construct: gene SLC6A2; human NET expressed in transfected HEK293 cells
Description: inhibition of mIBG internalization in HEK-NET cells, LC-MS/MS quantification. Type of data set: cell-based.

Substrate in data set [2]: N=C(N)NCc1cccc(I)c1
The data set can be described thus: cells, lysate or membranes.

T1 sequence (P23975 whole entry): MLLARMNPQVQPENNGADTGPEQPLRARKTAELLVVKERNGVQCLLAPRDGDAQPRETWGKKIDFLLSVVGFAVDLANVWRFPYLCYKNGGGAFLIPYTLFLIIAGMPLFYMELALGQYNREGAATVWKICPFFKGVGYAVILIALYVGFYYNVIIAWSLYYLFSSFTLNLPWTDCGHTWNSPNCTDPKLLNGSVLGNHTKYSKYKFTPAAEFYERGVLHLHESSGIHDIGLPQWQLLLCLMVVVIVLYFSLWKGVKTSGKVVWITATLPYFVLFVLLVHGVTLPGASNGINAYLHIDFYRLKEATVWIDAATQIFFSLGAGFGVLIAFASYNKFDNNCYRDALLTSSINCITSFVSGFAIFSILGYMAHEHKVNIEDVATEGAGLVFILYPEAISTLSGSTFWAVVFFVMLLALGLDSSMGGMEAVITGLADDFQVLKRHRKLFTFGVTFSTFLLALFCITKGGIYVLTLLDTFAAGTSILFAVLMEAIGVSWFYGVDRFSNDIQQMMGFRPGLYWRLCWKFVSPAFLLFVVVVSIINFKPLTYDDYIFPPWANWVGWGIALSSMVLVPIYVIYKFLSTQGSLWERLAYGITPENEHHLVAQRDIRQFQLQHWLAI

`c1ccc(CCCN2CCN(CCOC(c3ccccc3)c3ccccc3)CC2)cc1` [GBR12935]: the concentration for half-maximal inhibition (IC50) (as a rule, the midpoint of a concentration-inhibition curve) in data set [1] stood at 3.61 µM.

B1: dopamine transporter (DAT) (Homo sapiens) (protein)
chain: MSKSKCSVGLMSSVVAPAKEPNAVGPKEVELILVKEQNGVQLTSSTLTNPRQSPVEAQDRETWGKKIDFLLSVIGFAVDLANVWRFPYLCYKNGGGAFLVPYLLFMVIAGMPLFYMELALGQFNREGAAGVWKICPILKGVGFTVILISLYVGFFYNVIIAWALHYLFSSFTTELPWIHCNNSWNSPNCSDAHPGDSSGDSSGLNDTFGTTPAAEYFERGVLHLHQSHGIDDLGPPRWQLTACLVLVIVLLYFSLWKGVKTSGKVVWITATMPYVVLTALLLRGVTLPGAIDGIRAYLSVDFYRLCEASVWIDAATQVCFSLGVGFGVLIAFSSYNKFTNNCYRDAIVTTSINSLTSFSSGFVVFSFLGYMAQKHSVPIGDVAKDGPGLIFIIYPEAIATLPLSSAWAVVFFIMLLTLGIDSAMGGMESVITGLIDEFQLLHRHRELFTLFIVLATFLLSLFCVTNGGIYVFTLLDHFAAGTSILFGVLIEAIGVAWFYGVGQFSDDIQQMTGQRPSLYWRLCWKLVSPCFLLFVVVVSIVTFRPPHYGAYIFPDWANALGWVIATSSMAMVPIYAAYKFCSLPGSFREKLAYAIAPEKDRELVDRGEVRQFTLRHWLKV
With B1, the Km (usually the substrate concentration at which the rate is half of its maximum) in data set [2] stood at 2.807 µM.
